In patent US9556159B2, “Renin inhibitor” (MITSUBISHI TANABE PHARMA CORPORATION, priority 2012, dated 2017):

Each compound was assayed against T1, Recombinant human renin (Homo sapiens, UniProt P00797) (assay: Inhibitory activity against human renin (fluorogenic peptide substrate)). Settings: 50% inhibitory concentration (IC50) against human renin, 37° C. for 1 hour.
T1 sequence (P00797 67-406): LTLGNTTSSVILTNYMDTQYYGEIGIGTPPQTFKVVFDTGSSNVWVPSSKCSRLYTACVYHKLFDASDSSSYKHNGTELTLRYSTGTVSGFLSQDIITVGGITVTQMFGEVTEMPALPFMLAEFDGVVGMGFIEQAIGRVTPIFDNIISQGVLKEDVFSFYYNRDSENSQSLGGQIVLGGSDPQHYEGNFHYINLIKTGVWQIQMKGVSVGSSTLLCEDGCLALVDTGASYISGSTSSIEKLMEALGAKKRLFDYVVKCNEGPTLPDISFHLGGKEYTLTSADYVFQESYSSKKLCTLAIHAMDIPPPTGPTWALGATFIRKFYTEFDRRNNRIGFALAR
Format: biochemical
Work on `COC(=O)NCCCc1sc([C@@H](C)N(C(=O)[C@H]2CNCCO2)C2CC2)cc1-c1ccc(F)cc1` [Example 428] yielded an IC50 of 8.1 nM. `COC(=O)NCCCc1sc(C(C)N(C(=O)[C@H]2CNCCO2)C2CC2)cc1-c1ccnn1C` (some centres unmarked) [Example 429] gave an IC50 of 2 nM. With `COC(=O)NCCCc1sc(C(C)N(C(=O)[C@H]2CNCCO2)C2CC2)cc1-c1cccnc1` (some centres unmarked) [Example 430] the IC50 was 2.4 nM. `COC(=O)NCCCc1sc([C@H](C)N(C(=O)[C@H]2CNCCO2)C2CC2)cc1-c1cnc(N)nc1` [Example 431] showed an IC50 of 3.8 nM. In the case of `COC(=O)NCCCc1sc([C@@H](C)N(C(=O)[C@H]2CNCCO2)C2CC2)cc1-c1cnc(N)nc1` [Example 432], the IC50 is reported as 3.3 nM. Compound `COC(=O)NCCCc1nc([C@@H](C)N(C(=O)[C@H]2CNCCO2)C2CC2)cnc1O[C@@H]1CCOC1` [Example 433] has an IC50 of 5.3 nM. Compound `COC(=O)NCCCc1sc([C@@H](C)N(C(=O)[C@H]2CNCCO2)C2CC2)cc1-c1ccccc1C(=O)OC` [Example 434] has an IC50 of 2 nM. `COC(=O)NCCCc1sc([C@@H](C)N(C(=O)[C@H]2CNCCO2)C2CC2)cc1-c1ccccc1CO` [Example 435] gave an IC50 of 1.3 nM. With `COCC(C)Oc1ncc(C(C)N(C(=O)C2CNCCO2)C2CC2)nc1CCCNC(=O)OC` (centres unmarked) [Example 436] the IC50 was 2.2 nM. `COC(=O)NCCCc1sc([C@H](C)N(C(=O)[C@H]2CNCCO2)C2CC2)cc1Br` [Example 437] showed an IC50 of 2.7 nM. Work on `COC(=O)NCCCc1sc([C@@H](C)N(C(=O)[C@H]2CNCCO2)C2CC2)cc1Br` [Example 438] yielded an IC50 of 2.4 nM. Compound `COC(=O)NCCCc1nc([C@@H](C)N(C(=O)[C@H]2CNCCO2)C2CC2)sc1C(=O)Nc1ccccc1OC` [Example 439] has an IC50 of 8 nM. With `COC(=O)NCCCc1cc(C(C)N(C(=O)[C@H]2CNCCO2)C2CC2)cnc1O[C@H]1CCOC1` (some centres unmarked) [Example 440] the IC50 was 1.9 nM. With `COC(=O)NCCCc1cc([C@@H](C)N(C(=O)[C@H]2CNCCO2)C2CC2)sc1C(C)=O` [Example 441] the IC50 was 0.8 nM. With `COC(=O)NCCCc1nc([C@@H](C)N(C(=O)[C@H]2CNCCO2)C2CC2)cnc1N(C)C` [Example 442] the IC50 was 9.5 nM. Work on `COC(=O)NCCCc1cc([C@@H](C)N(C(=O)[C@H]2CNCCO2)C2CC2)cnc1O[C@H]1CCOC1` [Example 443] yielded an IC50 of 2 nM. `COCCNc1ncc([C@@H](C)N(C(=O)[C@H]2CNCCO2)C2CC2)nc1CCCNC(=O)OC` [Example 444] was tested, and the IC50 was 4.2 nM.
